Data from PMC4818757, “Small molecule inhibitors of the Dishevelled‐CXXC5 interaction are new drug candidates for bone anabolic osteoporosis therapy” (EMBO Molecular Medicine, 2016).

Legend:
[1] = target: CYP C29 (so in the source); probably CYP2C9) (Homo sapiens, UniProt P11712); test: Cytochrome P450 inhibition assay, C29
From the text: Appendix Table S4. Cytochrome P450 (CYP) inhibition assay with 10 µ M KY-

TA-98 = settings: TA-98, Without S-9 mix
From the text: (§1) Appendix Table S3. Bacterial reverse mutation assay with KY-02327
(§2) a Number of revertant colonies of treated plate/Number of revertant colonies of
(§3) vehicle control plate (Maron & Ames, 1983).
(§4) b Negative control. Vehicle: DMSO

[2] = tested on: ovariectomized (OVX) mice; test: OVX-induced osteoporosis mouse model; format: in vivo; settings: KY‐02327 20 mpk oral, PTH 0.06 mpk subcutaneous
Experimental: Figure 6 Effects of KY‐02327 on OVX‐induced osteoporosis model mice • A–H Vehicle or 20 mg of KY‐02327 per kg of animal body weight (mpk) was orally administered or 0.06 mpk of the N‐terminal fragment of PTH (amino acids 1‐34) was subcutaneously injected into the Sham‐operated (Sham) or ovariectomized (OVX) mice on 5 sequential days per week for 4 weeks (n = 4). After calcein injection, the prepared femoral sections of the OVX mice were examined under fluorescence microscope to visualize integrated calcein (A, green, arrows). Nuclei were counterstained with DAPI (A, blue). Scale bars, 100 μm. Osteoblast numbers (B) and calcein double‐labeled surfaces (C) were measured in the femoral sections. The mouse femurs were analyzed using micro‐CT, and BMD (D) and BV/TV (E) were calculated from the micro‐CT data. The three‐dimensional images of femoral trabecular bone were reconstructed (F), and trabecular number (G) and trabecular separation (H) were calculated. Data Information: The data are the mean ± s.d. (error bars). Significance was assessed using Kruskal–Wallis test.
This animal study was approved by the Institutional Review Board of Severance Hospital, Yonsei University College of Medicine. The mice were housed in filter‐topped shoebox cages with a computerized environmental control system (MJ LTD, Seoul, Korea). The care and treatment of experimental animals were performed in accordance with institutional guidelines. The room temperature was maintained at 26.5°C with a relative humidity of approximately 40–70%. The mice were given a standard maintenance diet from Dae Han Bio Link (Daejeon, Korea). For OVX mouse experiments, the surgeries were performed with 8‐week‐old female BL6 mice under anesthesia with avertin (2,2,2‐tribromoethanol; Worthington Biochemical, Freehold, NJ) as described previously (Zahoor et al, 2014). After removing the hair, dorsal incisions were made into the dermal layers above both sides of the ovaries using dissection scissors. The connection between the fallopian tube and the uterine horn was cut, and the ovary was removed. The incision was then sutured with 3 single catgut stitches. Sham mice were used as controls. After 4 weeks, the OVX group was divided into three groups for oral administration of vehicle (saline containing 10% Tween‐60) or 20 mg of KY‐02327 per kg of animal body weight (mpk) of KY‐02327, or for subcutaneous injection of 0.06 mpk of N‐terminal fragment of PTH (amino acids 1–34), which were administered for 5 sequential days per week for 4 weeks. The animals were sacrificed, and the organs were harvested for analysis. For the calcein double‐labeling experiment (Pall et al, 1987), calcein (10 mpk in 2% sodium hydrocarbonate, pH 7.4) was injected twice, on the last day of the 2nd and 3rd week. All the mice were randomly assigned to each groups, and the investigators were blinded to the group allocation during the treatments and experiments.
The mouse femurs were scanned using a micro‐CT system (Skyscan 1072; Skyscan, Aartselaar, Belgium). The scanned image data were reconstructed to create 3D images and analyzed using the CT‐Analyzing Program (Skyscan). For femoral trabecular bone analysis, the femurs were scanned with a voxel size of 10 μm, beginning at the end of the growth plate and extending proximally along the diaphysis, and 80 continuous slices (beginning at 0.1 mm from the most proximal aspect of the growth plate in which both condyles were no longer visible) were selected for analysis.
The femurs of OVX mice and the calvariae of 4‐day‐old mice were fixed in 4% paraformaldehyde in PBS. The bones were then decalcified in 10 mM EDTA and embedded in paraffin. Five‐micrometer tissue sections were deparaffinized in 100% xylene followed by re‐hydration with sequential 100% to 50% ethanol washes. The sections were stained with hematoxylin and eosin (H&E), and light micrographs were captured using a SMZ645 Nikon microscope (Nikon, Tokyo, Japan). […]

TA-100 = settings: TA-100, Without S-9 mix
From the text: as §1, §2, §3, §4

CYP C29 (so in the source); probably CYP2C9), sequence (P11712 whole entry): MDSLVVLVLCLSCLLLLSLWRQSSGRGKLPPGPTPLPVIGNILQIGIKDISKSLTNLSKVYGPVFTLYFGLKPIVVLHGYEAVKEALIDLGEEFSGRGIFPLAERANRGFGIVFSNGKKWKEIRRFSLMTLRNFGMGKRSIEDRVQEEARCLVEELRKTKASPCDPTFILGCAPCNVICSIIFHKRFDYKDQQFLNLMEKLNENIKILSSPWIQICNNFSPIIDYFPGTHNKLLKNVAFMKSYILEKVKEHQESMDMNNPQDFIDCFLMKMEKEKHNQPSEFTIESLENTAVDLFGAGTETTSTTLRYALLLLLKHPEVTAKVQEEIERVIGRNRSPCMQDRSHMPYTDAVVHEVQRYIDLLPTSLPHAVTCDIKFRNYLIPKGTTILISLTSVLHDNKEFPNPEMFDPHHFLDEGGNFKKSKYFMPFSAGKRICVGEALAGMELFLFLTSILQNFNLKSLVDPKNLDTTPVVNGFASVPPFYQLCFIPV

Nc1ccc(S(=O)(=O)Nc2ccnn2-c2ccccc2)cc1 [Sulfaphenazole, reference compound]
inhibition at 10 µM [1]: 80.5%

O=[N+]([O-])c1ccc2c(c1)Cc1ccccc1-2 [2-NF, 2-nitrofluorene, reference compound]
Factor (revertant colonies treated plate / vehicle control plate) (TA-98): 9.4
Revertant colonies/plate (Mean) (TA-98; dose (g/plate): KY-02327 1000, 2-NF 1): 178 ± 16 colonies/plate

PTH: N‐terminal fragment of PTH (amino acids 1‐34) [reference compound]
destroyed trabecular bones (3D micro-CT images) ([2]; 4 weeks): rescued
mineral contents of the bone (BMD), femur, micro‐CT ([2]; 4 weeks): significantly increased
trabecular bone number ([2]; 4 weeks): increase
trabecular separation ([2]; 4 weeks): decrease
volume of bone (BV/TV) ([2]; 4 weeks, vs vehicle): increased
calcein double‐labeled surface ([2]; 5 days per week for 4 weeks): increased
new bone formation (calcein-labeled) in femur ([2]; 5 days per week for 4 weeks): recovered
number of osteoblasts ([2]; 5 days per week for 4 weeks): increased

[N-]=[N+]=[N-].[Na+] [S.A, Sodium azide, reference compound]
Factor (revertant colonies treated plate / vehicle control plate) (TA-100): 5.6
Revertant colonies/plate (Mean) (TA-100; dose (g/plate): KY-02327 1000, S.A 1): 689 ± 20 colonies/plate
